How the values were obtained:
[1] = target: T1, Inhibitor of nuclear factor kappa-B kinase subunit beta (Homo sapiens, UniProt O14920); assay: Inhibition of human IKK2-mediated GST-IkappaBalpha protein fusion phosphorylation
T1 sequence (O14920 whole entry): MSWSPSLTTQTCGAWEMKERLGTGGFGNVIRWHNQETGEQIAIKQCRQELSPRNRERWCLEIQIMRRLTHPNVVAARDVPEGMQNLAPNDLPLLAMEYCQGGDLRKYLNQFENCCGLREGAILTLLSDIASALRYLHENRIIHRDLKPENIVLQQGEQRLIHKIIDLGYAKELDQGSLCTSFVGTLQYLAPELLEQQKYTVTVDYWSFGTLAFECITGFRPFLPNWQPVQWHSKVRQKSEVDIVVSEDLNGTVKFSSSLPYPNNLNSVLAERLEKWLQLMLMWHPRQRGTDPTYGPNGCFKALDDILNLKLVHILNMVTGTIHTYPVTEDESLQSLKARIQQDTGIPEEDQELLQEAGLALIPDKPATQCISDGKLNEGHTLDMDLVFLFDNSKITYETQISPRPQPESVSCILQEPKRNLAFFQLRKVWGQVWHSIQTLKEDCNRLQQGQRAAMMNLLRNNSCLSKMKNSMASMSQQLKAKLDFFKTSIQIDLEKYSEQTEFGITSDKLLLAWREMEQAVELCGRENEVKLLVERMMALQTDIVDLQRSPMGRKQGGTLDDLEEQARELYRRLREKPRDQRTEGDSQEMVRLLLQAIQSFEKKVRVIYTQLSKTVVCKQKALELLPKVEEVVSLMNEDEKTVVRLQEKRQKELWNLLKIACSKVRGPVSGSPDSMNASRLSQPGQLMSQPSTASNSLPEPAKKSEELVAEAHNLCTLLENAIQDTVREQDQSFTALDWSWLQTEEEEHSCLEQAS

[2] = system: PBMC; assay: Antiinflammatory activity in human PBMC assessed as inhibition of LPS-induced TNFalpha release treated for 5 mins before LPS challenge measured after 4 hrs by ELISA; assay type: functional, cell-based
[3] = system: Blood; assay: Antiinflammatory activity in human whole blood assessed as inhibition of LPS-induced TNFalpha release treated for 45 mins before LPS challenge measured after 6 hrs by ELISA; assay type: functional, tissue-based
[4] = Cmax in Lewis rat at 30 mg/kg, po; assay type: ADME, organism-based; design: dose 30 mg/kg, route oral; details: in vivo
[5] = AUC in Lewis rat at 30 mg/kg, po; assay type: ADME, organism-based; design: dose 30 mg/kg, route oral; details: plasma

`CNc1nc2[nH]c(-c3cccc(CN(C)C(=O)COC)n3)cc2c2c1ncn2C` showed an IC50 [1] of 19 nM, an IC50 ([2]; Homo sapiens, PBMC) of 350 nM and an IC50 ([3]; Homo sapiens, Blood) of 3300 nM.

For `CNc1nc2[nH]c(-c3cccc(CNC(=O)C4(C)CC4)n3)cc2c2c1ncn2C`, the IC50 [1] was 41 nM and the IC50 ([2]; Homo sapiens, PBMC) was 570 nM.

Work on `CNc1nc2[nH]c(-c3cccc(CNC(=O)C(C)(C)O)n3)cc2c2c1ncn2C` yielded an IC50 [1] of 12 nM, an IC50 ([2]; Homo sapiens, PBMC) of 240 nM and an IC50 ([3]; Homo sapiens, Blood) of 3400 nM.

Compound `CNc1nc2[nH]c(-c3cccc(CNC(=O)c4cnccn4)n3)cc2c2c1ncn2C` has an IC50 [1] of 23 nM, an IC50 ([2]; Homo sapiens, PBMC) of 290 nM and an IC50 ([3]; Homo sapiens, Blood) of 5900 nM.

With `CNc1nc2[nH]c(-c3cccc(CNC(=O)C4CC4)n3)cc2c2c1ncn2C` the IC50 [1] was 33 nM, the IC50 ([2]; Homo sapiens, PBMC) was 280 nM and the IC50 ([3]; Homo sapiens, Blood) was 5900 nM.

With `CNc1nc2[nH]c(-c3cccc(CNC(C)=O)n3)cc2c2c1ncn2C` the IC50 [1] was 19 nM, the IC50 ([2]; Homo sapiens, PBMC) was 160 nM and the IC50 ([3]; Homo sapiens, Blood) was 1600 nM.

For `CNc1nc2[nH]c(-c3cccc(CNC(=O)CCN(C)C)n3)cc2c2c1ncn2C`, the IC50 [1] was 5 nM, the IC50 ([2]; Homo sapiens, PBMC) was 220 nM and the IC50 ([3]; Homo sapiens, Blood) was 1800 nM.

For `CNc1nc2[nH]c(-c3cccc(CNC(=O)CC(C)C)n3)cc2c2c1ncn2C`, the IC50 [1] was 26 nM, the IC50 ([2]; Homo sapiens, PBMC) was 390 nM and the IC50 ([3]; Homo sapiens, Blood) was 15000 nM.

`CNc1nc2[nH]c(-c3cc(CNC(C)=O)ccn3)cc2c2c1ncn2C` showed an IC50 [1] of 330 nM.

`CNc1nc2[nH]c(-c3cccc(CNC(=O)c4csnn4)n3)cc2c2c1ncn2C` gave an IC50 [1] of 28 nM, an IC50 ([2]; Homo sapiens, PBMC) of 230 nM and an IC50 ([3]; Homo sapiens, Blood) of 5200 nM.

In the case of `CNc1nc2[nH]c(-c3cccc(C4(NC(C)=O)CC4)n3)cc2c2c1ncn2C`, the IC50 [1] is reported as 81 nM, the IC50 ([2]; Homo sapiens, PBMC) is reported as 400 nM and the IC50 ([3]; Homo sapiens, Blood) is reported as 7000 nM.

Work on `CNc1nc2[nH]c(-c3cccc(CNC(=O)CO)n3)cc2c2c1ncn2C` yielded an IC50 [1] of 13 nM, an IC50 ([2]; Homo sapiens, PBMC) of 530 nM and an IC50 ([3]; Homo sapiens, Blood) of 1800 nM.

Work on `CCNc1nc2sc(-c3cccc([C@H](C)NC(C)=O)c3)nc2c2c1ncn2C` yielded an IC50 ([3]; Homo sapiens, Blood) of 3500 nM.

Compound `CNc1nc2[nH]c(-c3cccc(CNC(C)=O)c3)cc2c2c1ncn2C` has an IC50 [1] of 14 nM.

Work on `CNc1nc2[nH]c(-c3cccc(N4CCN(C)CC4)n3)cc2c2c1ncn2C` yielded an IC50 [1] of 128 nM, an IC50 ([2]; Homo sapiens, PBMC) of 1500 nM and an IC50 ([3]; Homo sapiens, Blood) of over 25000 nM.

`CNC(=O)N(C)Cc1cccc(-c2cc3c(nc(NC)c4ncn(C)c43)[nH]2)n1` showed an IC50 [1] of 5.7 nM, an IC50 ([2]; Homo sapiens, PBMC) of 350 nM and an IC50 ([3]; Homo sapiens, Blood) of 1700 nM.

With `CCC(=O)NCc1cccc(-c2cc3c(nc(NC)c4ncn(C)c43)[nH]2)n1` the IC50 [1] was 44 nM, the IC50 ([2]; Homo sapiens, PBMC) was 700 nM and the IC50 ([3]; Homo sapiens, Blood) was 6100 nM.

`CNCC(=O)NCc1cccc(-c2cc3c(nc(NC)c4ncn(C)c43)[nH]2)n1` gave an IC50 [1] of 86 nM, an IC50 ([2]; Homo sapiens, PBMC) of 130 nM and an IC50 ([3]; Homo sapiens, Blood) of 17000 nM.

Compound `CNc1nc2[nH]c(-c3cccc(NC(C)=O)n3)cc2c2c1ncn2C` has an IC50 [1] of 130 nM and an IC50 ([2]; Homo sapiens, PBMC) of 1900 nM.

`CNc1nc2[nH]c(-c3cccc(C(C)NC(C)=O)n3)cc2c2c1ncn2C` (single isomer, unassigned; enantiomer 2) gave an IC50 [1] of 9 nM, an IC50 ([2]; pbmc) of 300 nM and an IC50 [3] of 1600 nM.

`CNc1nc2[nH]c(-c3cccc(C(C)NC(C)=O)n3)cc2c2c1ncn2C` (single isomer, unassigned) gave an IC50 [1] of 16 nM, an IC50 ([2]; pbmc) of 680 nM and an IC50 ([3]; Homo sapiens, Blood) of 1700 nM.

In the case of `CNc1nc2[nH]c(-c3cccc(CNC(=O)CCOC)c3)cc2c2c1ncn2C`, the Cmax [4] is reported as 7.8 µM, the AUC [5] is reported as 39 µM·h and the IC50 [1] is reported as 13 nM. The IC50 ([3]; Homo sapiens, Blood) was 7000 nM.

Work on `CNc1nc2[nH]c(-c3cccc(NCCOC)n3)cc2c2c1ncn2C` yielded an IC50 [1] of 20 nM, an IC50 ([2]; Homo sapiens, PBMC) of 350 nM and an IC50 ([3]; Homo sapiens, Blood) of 6400 nM.

Compound `CNc1nc2[nH]c(-c3cccc(CNC(=O)CCOC)n3)cc2c2c1ncn2C` has an IC50 [1] of 12 nM, an IC50 ([2]; Homo sapiens, PBMC) of 280 nM and an IC50 ([3]; Homo sapiens, Blood) of 3300 nM.

Compound `CNc1nc2[nH]c(-c3cccc(CNC(=O)C(C)(C)C)n3)cc2c2c1ncn2C` has an IC50 [1] of 66 nM, an IC50 ([2]; Homo sapiens, PBMC) of 310 nM and an IC50 ([3]; Homo sapiens, Blood) of 5500 nM.

With `CNc1nc2[nH]c(-c3cccc(N(C)CCOC)n3)cc2c2c1ncn2C` the IC50 [1] was 438 nM, the IC50 ([2]; Homo sapiens, PBMC) was 1900 nM and the IC50 ([3]; Homo sapiens, Blood) was over 25000 nM.

Work on `CNc1nc2[nH]c(-c3cccc(CN(C)C(C)=O)n3)cc2c2c1ncn2C` yielded an IC50 [1] of 14 nM, an IC50 ([2]; Homo sapiens, PBMC) of 230 nM and an IC50 ([3]; Homo sapiens, Blood) of 3000 nM.

Source: ChEMBL document CHEMBL1921674, “Novel tricyclic inhibitors of IKK2: discovery and SAR leading to the identification of 2-methoxy-N-((6-(1-methyl-4-(methylamino)-1,6-dihydroimidazo[4,5-d]pyrrolo[2,3-b]pyridin-7-yl)pyridin-2-yl)methyl)acetamide (BMS-066)” (Bioorg Med Chem Lett, 2011)
